Measurements reported in patent publication US20050009732A1, “Method of treatment and agents useful for same” (Medvet Science Pty Ltd., priority 2003, published 2005).
Starred links: 1 amine or outer side, 2 acyl side, 3 side chain; linkers in the order of their positions; H or OH if unused. Positions of bridges follow the written chain, without caps; N, C: chain ends. Non-standard residues stand in square brackets, D forms with d. Residues, ends and D or L forms follow the SMILES beside them. Chains are numbered I, II in the order given. Actinocin(9to1) = Cc1c2oc3c(C)ccc(C(=O)[*:1])c3nc-2c(C(=O)[*:2])c(N)c1=O; NMeV = CN[C@H](C(=O)O)C(C)C; Sar = CNCC(=O)O

Assays:
Type in all cases: cell-based, human
[1] = test system: intracellular Ca2+ mobilization in MCF-7 cells; experiment: Measurement of [Ca2+]i in Fluo-3 loaded MCF-7 cells; conditions: for effect on E2-induced rise of [Ca2+]i: pretreatment then E2 (DMS 10 μM 30 min; ICI 10 μM; BHQ 100 nM; EGTA 2 mM; 2-APB 75 μM); for effect on [Ca2+]i when added alone: S1P 100 nM, E2-BSA 1 μM
Description: The fluorescence of the cells was monitored at an excitation wavelength of 490 nm and an emission wavelength of 525 nm. Each recording was calibrated by determining the maximal uptake of calcium (Fmax) in the presence of 0.1% Triton X as well as the level of autofluorescence (Fmin), after quenching Fluo-3/AM fluorescence with 1 mM Mn2^+.

[2] = test system: Erk1/2 phosphorylation in MCF-7 cells; experiment: Erk1/2 phosphorylation by Western blotting in MCF-7 cells
Description: Cells were harvested and lysed by sonication in lysis buffer containing 50 mM Tris/HCl (pH 7.4), 10% glycerol, 0.5% Triton-X-100, 150 mM NaCl, 1 mM dithiothreitol, 2 mM Na3VO4, 10 mM NaF, 1 mM EDTA and protease inhibitors (Complete; Roche Molecular Biochemicals). Protein concentrations of the cell lysates were determined with a Bio-Rad Dc protein assay kit (Bio-Rad Laboratories, CA). Aliquots of cell lysates containing 30-50 μg of proteins were resolved by 12% SDS-PAGE and transferred to Hybond-P membranes (Amersham Biosciences, Inc.). The membranes were then probed with appropriate antibodies according to standard method as described previously (Pitson, S. M., 2000, supra). The immunocomplexes were detected with an enhanced chemiluminescence PLUS kit (Amersham Pharmacia Biosciences) and by using Typhoon 9410 Variable Mode Imager (Amersham Pharmacia Biotechnologies).

[3] = test system: SK activity in MCF-7 cells; experiment: SK activity assay in MCF-7 cells; conditions: for effect on E2-mediated SK activation: pretreatment (ICI 10 μM 1 h; PTX 50 ng/ml 16 h) then 10 nM E2
Description: (§1) Briefly, after desired treatments the cells were washed with ice-cold PBS, scraped from the culture dishes and homogenized in lysis buffer containing 20 mM Tris (pH 7.4), 20% glycerol, 1 mM DTT, 1 mM EDTA, 10 μM MgCl2, 1 mM Na3VO4, 15 mM NaF, 10 μg/ml leupeptin and aprotinin, 1 mM PMSF and 0.5 mM 4-deoxypyridoxine. After centrifugation at 13,000×g for 30 min, SK activity was measured by incubating the cytosolic fraction with 5 μM sphingosine dissolved in 0.1% Triton X-100 and [γ^32P]ATP (1 mM, 0.5 mCi/ml) for 30 min at 37° C. as described previously (Pitson et al, 2000, supra; Xia, P., 1998, supra). The enzyme activity was normalized by total protein concentration of each sample.

[4] = test system: MCF-7 cells; experiment: Focus formation assay in MCF-7 cells; conditions: 10 nM E2, 10-day culture
Description: MCF-7 cells were seeded into 24-well plastic tissue culture plates at a density of 1×10^5 cells/ml/well, and maintained in phenol-red free media containing 10% FCS until the cells reached confluent. The cells were then refed at 24 h before first treatment with or without 10 nM E2 and then every 2-3 days thereafter with 1% FCS medium. After 5, 10 and 14 days the cultures were photographed and number of foci were counted. For colony assay, cells (1×10^4) suspended in 2 ml of 0.36% agar (Becton Dickinson, Sparks, MD) with phenol-red free growth medium were added on a base layer of 0.72% agar containing culture medium as described previously (Xia, P., Gamble, J. R., Wang, L., Pitson, S. M., Moretti, P. A., Wattenberg, B. W., D'andrea, R. J., and Vadas, M. A. (2000) Curr. Biol., 10: 1527-1530). After 14 days of incubation, the colonies were stained with MTT and counted. All experiments were done at least three times using triplicates per experimental point. Average was assessed by counting the number of colonies under low magnification (×20) at four points on each well.

[5] = test system: SK activity in MDA-MB-231 cells; experiment: SK activity assay in MDA-MB-231 cells; conditions: 10 nM E2, 15 min or 6 hours
Description: as §1

[6] = test system: MCF-7 cells; experiment: Cell growth assay (MTS) in MCF-7 cells; conditions: 10 nM E2, in the absence of serum
Description: To assess cell proliferation, we used the CellTiter 96 AQueous proliferation assay (Promega Corp.) that is based on metabolic conversion of a tetrazolium compound MTS to a colored product by living cells as described in the manufacturer's protocols. Cells (4×10^3 cell/well) were seeded in 4 to 6 replicates into 96-well plates and incubated at 37° C. in 5% CO2 with or without E2 (10 nM) in phenol-red free media for a desired time period. The medium was changed every 2-3 days. The absorbance intensity of the MTS product is directly proportional to the number of viable cells in culture when cell number is between 2000 and 200 000, otherwise the exponential dependence was determined. Total cell numbers were calculated based on calibration curves.

4-hydroxytamoxifen [OH-Tam]
effect on E2-induced rise of [Ca2+]i [1]: not prevented

COc1cccc(-c2cc(=O)c3ccccc3o2)c1N [PD098095]
effect on E2-promoted phosphorylation of Erk1/2 ([2]; 100 μM pretreatment 30 min, 10 nM E2): blocked

17β-estrodiol [E2]
SK activity after additional dose of E2 ([3]; MCF-7 cells pretreated with E2 for 16 h, pulsed with additional 10 nM E2): additive increase | prolonged effect on SK activity ([3]; MCF-7 cells, 10 nM E2, after 6 hours, remained more than 24 hours): significant increase | maximum SK activity ([3]; MCF-7 cells, 10 nM E2, within 15 min): 240±25 % of basal | concentration at which the E2-induced SK activity reaches a maximum ([3]; MCF-7 cells, increasing doses, 15 min): 1 µM | time to maximal level of [Ca2+]i ([1]; E2 1 nM): 30 ± 10 s | effect on Erk 1/2 activity ([2]; 10 nM E2): significant increase | time of maximal Erk 1/2 activity ([2]; 10 nM E2, basal levels by 60 min): ≤ 15 min | foci formation [4]: able to form solid cell foci | SK activity [5]: No increased activity | effect on cell growth [6]: stimulated cell growth

CCCCCCCCCCCCC/C=C/[C@@H](O)[C@@H](N)COP(=O)(O)O [S1P, sphingosine-1-phosphate]
effect on [Ca2+]i when added alone [1]: resulted in an increase

CC/C(=C(\c1ccccc1)c1ccc(OCCN(C)C)cc1)c1ccccc1 [Tamoxifen]
effect on E2-mediated SK activation ([3]; MCF-7 cells): no influence

CCCCCCCCCCCCCC(=O)O[C@@H]1[C@@H](C)[C@@]2(O)[C@@H](C=C(CO)C[C@]3(O)C(=O)C(C)=C[C@@H]23)[C@@H]2C(C)(C)[C@]12OC(C)=O [PMA, phorbol 12-myristate 13-acetate]
increase in SK activity over basal levels ([3]; PMA 100 ng/ml, 30 min, SK and empty-vector transfected MCF-7 cells): approximately 2 fold

C[C@]12CC[C@@H]3c4ccc(O)cc4C[C@@H](CCCCCCCCC[S+]([O-])CCCC(F)(F)C(F)(F)F)[C@H]3[C@@H]1CC[C@@H]2O (stereo partly drawn) [ICI 182,780]
effect on E2-mediated SK activation ([3]; MCF-7 cells): no influence | effect on E2-induced rise of [Ca2+]i [1]: not prevented

pertussis toxin
effect on E2-mediated SK activation ([3]; MCF-7 cells): strongly abrogated

NCCOB(c1ccccc1)c1ccccc1 [2-APB, 2-Aminoethoxydiphenyl borate]
effect on E2-induced rise of [Ca2+]i [1]: unable to effectively abolish

Cc1c2oc3c(C)ccc(C(=O)N[C@@H]4C(=O)N[C@H](C(C)C)C(=O)N5CCC[C@H]5C(=O)N(C)CC(=O)N(C)[C@@H](C(C)C)C(=O)O[C@@H]4C)c3nc-2c(C(=O)N[C@@H]2C(=O)N[C@H](C(C)C)C(=O)N3CCC[C@H]3C(=O)N(C)CC(=O)N(C)[C@@H](C(C)C)C(=O)O[C@@H]2C)c(N)c1=O [actinomycin D] (I: T[dV]P[Sar][NMeV] / II: T[dV]P[Sar][NMeV]; ester I:1-I:C, II:1-II:C; linker I:N-II:N via Actinocin(9to1))
effect on first peak of E2-induced SK activity ([3]; MCF-7 cells, 1 μM actinomycin D pretreatment 4 h, 10 nM E2): no overt effect | effect on delayed E2-induced activation of SK ([3]; MCF-7 cells, 1 μM actinomycin D, 10 nM E2 prolonged time course): abrogated

17β-estrodiol-BSA [E2-BSA]
effect on [Ca2+]i when added alone [1]: same extent as E2

O=C(O)CN(CCOCCOCCN(CC(=O)O)CC(=O)O)CC(=O)O [EGTA]
effect on E2-induced rise of [Ca2+]i [1]: slightly decreased

CC(C)(C)c1cc(O)ccc1O [BHQ, tert-butylhydroquinone]
effect on E2-induced rise of [Ca2+]i [1]: strongly reduced
